Laboratory results taken from publication PMC8833215 (2022).

Key:
[1] = system: fully paired RNA (loop mutated to a base pair) (RNA, hairpin) CUGAGGUGAAACAUCUCAG; experiment: microscale thermophoresis; settings: 1x Binding Buffer, 0.1% Tween-20, room temperature
[2] = system: 5'GAG/3'CCC internal loop RNA (Cy5-labeled model of pri-miR-27a's Drosha site) (RNA, mismatch bulge abasic) CUGAGGUGAAACAUCCCAG; experiment: microscale thermophoresis; settings: 1x Binding Buffer; for Kd: 0.1% Tween-20, 10 nM Cy5-RNA, room temperature
[3] = system: 5'CAG/3'GCC internal loop RNA (closing GC mutated to CG) (RNA, mismatch bulge abasic) CUCAGGUGAAACAUCCGAG; experiment: microscale thermophoresis; settings: 1x Binding Buffer, 0.1% Tween-20, room temperature; for Kd: no saturable binding
[4] = system: WT pri-miR-27a (unlabeled miR-27a precursor) (RNA, miRNA) GAGAGAGGCCCCGAAGCCUGUGCCUGGCCUGAGGAGCAGGGCUUAGCUGCUUGUGAGCAGGGUCCACACCAAGUCGUGUUCACAGUGGCUAAGUUCCGCCCCCCAGGCCCUCACCUCCUCUGGCCUUGCC; experiment: competitive binding assay; settings: 100 nM compound; competes with Cy5-labeled model of the Drosha site
[5] = system: mutated pri-miR-27a (both 5'GAG/3'CCC loops mutated to base pairs) (RNA, miRNA) GAGAGAGGCCCCGAAGCCUGUGCCUGGCCUGAGGAGCAGGGCUUAGCUGCUUGUGAGCAGGGUCCACACCAAGUCGUGUUCACAGUGGCUAAGUUCCGCUCCUCAGGCCCUCACCUCCUCUGGCCUUGCC; experiment: competitive binding assay; settings: 100 nM compound; competes with Cy5-labeled model of the Drosha site

## C#CCN(CC(N)=O)C(=O)C[C@H](Cc1c[nH]c2ccccc12)NC(=O)[C@@H]1C[C@@H](NC(=O)Cn2c(=O)[nH]c3ccccc3c2=O)CN1
[1]
  binding: no
[2]; 0.1% Tween-20, room temperature
  binding: no
[3]
  binding: no

## C#CCN(CC(N)=O)C(=O)C[C@H](Cc1c[nH]c2ccccc12)NC(=O)[C@@H]1C[C@H](NC(=O)Cn2c(=O)[nH]c3ccccc3c2=O)CN1
[1]; no saturable binding
  binding: no
[4]
  Kd: 40 ± 30 nM
[2]
  Kd: 90 ± 20 nM
[5]
  binding: no
[3]
  Kd: > 50000 nM

## C#CCN(CC(N)=O)C(=O)[C@@H]1CCN1C(=O)[C@@H]1C[C@H](N)CN1C(=O)c1ccccc1C(=O)N1CCOCC1
[1]; no saturable binding
  binding: no
[2]
  Kd: 700 ± 100 nM
[3]
  Kd: > 50000 nM

## C#CCN(CC(N)=O)C(=O)[C@H](Cc1ccccc1C#N)NC(=O)[C@@H]1C[C@H](NC(=O)[C@H]2CCCO2)CN1
[1]; no saturable binding
  binding: no
[2]
  Kd: 530 ± 90 nM
[3]
  Kd: > 50000 nM
